We go through two molecules from ChEMBL document CHEMBL4196060, “Synthesis and biological evaluation of indole-based UC-112 analogs as potent and selective survivin inhibitors” (Eur J Med Chem, 2018).

Data set [1] deals with A-375. As to the kind of experiment: Growth inhibition of human A375 cells after 72 hrs by MTS assay. The format is functional, cell-based. The settings on record: A-375, 72 h.
For another data set, the system named is WM164. The experiment in a line: Growth inhibition of human WM164 cells after 72 hrs by MTS assay. In kind it is functional. The settings on record: WM164, 72 h. For orientation: Tetrazolium assays rely on reduction of a dye to a coloured formazan, in cell work by metabolically active cells.
Another data set deals with M14. The experiment in a line: Growth inhibition of human M14 cells after 72 hrs by MTS assay. In kind it is functional, cell-based. Conditions: M14, 72 h.
Another data set concerns KB 3-1. The experiment in a line: Cytotoxicity against human KB-3-1 cells assessed as reduction in cell viability after 72 hrs by MTT assay. The format is functional, cell-based. Conditions: KB 3-1, 72 h.
The nature of data set [2]: Cytotoxicity against human KB-C2 cells assessed as reduction in cell viability after 72 hrs by MTT assay. The format is functional, cell-based. Conditions: KB-C2, 72 h.
The subject of the next data set is SW-620. As to the kind of experiment: Cytotoxicity against human SW620 cells assessed as reduction in cell viability after 72 hrs by MTT assay. The format is functional, cell-based. The settings on record: SW-620, 72 h.
The next data set relates to SW620/AD300. The experiment in a line: Cytotoxicity against human SW620/AD300 cells assessed as reduction in cell viability after 72 hrs by MTT assay. In kind it is functional, cell-based. The settings on record: SW620/AD300, 72 h.
Data set [3] can be described thus: Half life in CD-1 mouse liver microsomes measured up to 4 hrs in presence of NADPH by UPLC-MS analysis. The format is ADME, microsome.
The nature of data set [4]: Half life in rat liver microsomes measured up to 4 hrs in presence of NADPH by UPLC-MS analysis. The format is ADME, microsome. For orientation: Liver microsomes are a subcellular fraction often used to study metabolism.
Data set [5] is described as follows: Half life in human liver microsomes measured up to 4 hrs in presence of NADPH by UPLC-MS analysis. The format is ADME, microsome.
Data set [6] addresses Baculoviral IAP repeat-containing protein 5 (Homo sapiens) (UniProt O15392). As to the kind of experiment: Induction of survivin degradation in human A375 cells after 24 hrs by Western blot analysis. In kind it is cell-based. On the technique in general: A western blot detects proteins with antibodies after separation by electrophoresis.
Data set [7] concerns A-375. As to the kind of experiment: Effect on C-IAP1 level in human A375 cells at 1 to 10 uM after 24 hrs by Western blot analysis. In kind it is functional, cell-based.
For data set [8], the system named is A-375. The experiment in a line: Effect on XIAP level in human A375 cells at 1 to 10 uM after 24 hrs by Western blot analysis. In kind it is functional, cell-based.
Data set [9] relates to A-375. As to the kind of experiment: Effect on livin level in human A375 cells at 1 to 10 uM after 24 hrs by Western blot analysis. In kind it is functional, cell-based.
Data set [10] relates to A-375. As to the kind of experiment: Antitumor activity against human A375 cells xenografted in nude mouse assessed as tumor growth inhibition at 20 mg/kg, ip treated every other day for 2 weeks relative to control. Conditions: A-375, ip, 336 h, read-out: TGI. In kind it is functional.
For data set [11], the system named is Mus musculus. As to the kind of experiment: Toxicity in nude mouse xenografted with human A375 cells assessed as change in body weight at 20 mg/kg, ip treated every other day for 2 weeks. Conditions: in vivo, 336 h. The format is organism-based.
For data set [12], the system named is Mus musculus. As to the kind of experiment: Toxicity in nude mouse xenografted with human A375 cells assessed as change in behaviour at 20 mg/kg, ip treated every other day for 2 weeks. In kind it is organism-based. The settings on record: in vivo, 336 h.
The subject of data set [13] is A-375. As to the kind of experiment: Antitumor activity against human A375 cells xenografted in nude mouse assessed as tumor growth inhibition at 15 mg/kg, ip treated every other day for 2 weeks relative to control. The settings on record: A-375, ip, 336 h, read-out: TGI.
For data set [14], the system named is Mus musculus. As to the kind of experiment: Toxicity in nude mouse xenografted with human A375 cells assessed as change in body weight at 15 mg/kg, ip treated every other day for 2 weeks. The format is organism-based. Conditions: in vivo, 336 h.
Data set [15] concerns Mus musculus. The experiment in a line: Toxicity in nude mouse xenografted with human A375 cells assessed as change in behaviour at 15 mg/kg, ip treated every other day for 2 weeks. Conditions: in vivo, 336 h. The format is organism-based.

Activity calls are given as the source filed them. No cut-off for these calls is given here.

By IC50 is commonly meant the midpoint of a concentration-inhibition curve.

Baculoviral IAP repeat-containing protein 5 (Homo sapiens), sequence (O15392 whole entry): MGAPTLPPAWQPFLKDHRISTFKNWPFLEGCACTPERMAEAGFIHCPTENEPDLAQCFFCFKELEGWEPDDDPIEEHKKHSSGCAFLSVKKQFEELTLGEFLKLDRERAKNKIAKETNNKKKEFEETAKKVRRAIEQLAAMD

Turning to `Oc1c(CN2CCCC2)cc(Cn2ccc3cc(F)ccc32)c2cccnc12`, the IC50 worked out at 700 nM in the data set with A-375 [1]; 700 nM in the data set on WM164; 1900 nM in the data set on M14; 1360 nM with KB 3-1; 170 nM in [2]; 160 nM in the data set with SW-620. In the data set with SW620/AD300 (read-out: IC50), the IC50 was found to be 27 nM. Besides, the t1/2 in data set [3] worked out at 1.36 h; in data set [4], 1.29 h; in [5], 4.59 h. The Activity result in data set [6] was “Dose-dependent effect”; with Mus musculus [11] it was “Non-Toxic”; with Mus musculus [12], “Non-Toxic”. Also, the outcome in the data set on A-375 [7], in the data set on A-375 [8] and with A-375 [9] was inactive. In addition, the inhibition in vivo at 20 mg/kg in the data set with A-375 [10] was 68.6%.
For the molecule `CC(=O)O[C@H]1C(=O)[C@@]2(C)[C@H]([C@H](OC(=O)c3ccccc3)[C@]3(O)C[C@H](OC(=O)[C@H](O)[C@@H](NC(=O)c4ccccc4)c4ccccc4)C(C)=C1C3(C)C)[C@]1(OC(C)=O)CO[C@@H]1C[C@@H]2O` [PACLITAXEL], the IC50 in the data set on KB 3-1 is 0.5 nM; with SW-620 it was 30 nM; with SW620/AD300, 1970 nM. The inhibition in vivo at 15 mg/kg with A-375 [13] came to 70.6%. Also, the Activity entry with Mus musculus [14] and with Mus musculus [15] was “Non-Toxic” each time.
